Read-outs that look alike come from different tables or passages of the source.
What was measured:
MV4-11 cells = assay: Oncology cell growth assay (3-day proliferation, CellTiter-Glo); assay type: cell-based; conditions: Homo sapiens, AML cell line MV4-11, 72 hours, compounds grouped by IC50 range, read-out: MV4-11 IC50 (inhibition of proliferation, gIC50)
Summary of the method: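 Compounds were serially diluted 3-fold in DMSO, giving final well concentrations from 10 down to 0.0045 μM. MV4-11 cells were then seeded at 3000 cells/well in RPMI 1640 with 10% FBS and incubated 72 hours. CellTiter-Glo signal was measured and gIC50 obtained by four-parameter logistic regression.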

BRD4 BD1 = molecular target: T1, BRD4 BD1 (Homo sapiens, UniProt O60885); assay: AlphaScreen binding assay, BRD4 Bromodomain 1
T1 construct: made in house
Summary of the method: (§1)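 An AlphaScreen competition format was used with His-BRD4 BD1 or BD2 and biotin-H4 K5/8/12/16-acetyl peptide, each at matched final levels of 50 nM (BD1) or 100 nM (BD2). Incubation in HEPES/NaCl buffer with 0.1% BSA and 0.01% Triton X-100 ran ≥1 h before IC50 determination.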

BRD4 BD2 = molecular target: T2, BRD4 BD2 (Homo sapiens, UniProt O60885); assay: AlphaScreen binding assay, BRD4 Bromodomain 2
T2 construct: made in house
Summary of the method: as §1

SMILES | IC50 (MV4-11 cells; MV4-11, 72 h) [nM] | IC50 (BRD4 BD1) [nM] | IC50 (BRD4 BD2) [nM] | IC50 (MV4-11 cells) [nM]
CC(=O)N1c2ccc(-c3cc(Cl)cc(S(C)(=O)=O)c3)cc2N(C(=O)C2CC2)C[C@@H]1C [Example I-1094] | > 500 | 1000 to 10000 | > 500 | 
COC(=O)c1ccc(OC(=O)N2C[C@H](C)N(C(C)=O)c3ccc(-c4ccc(S(C)(=O)=O)cc4)cc32)cc1 [Example I-229] | < 100 | 100 to 1000 | < 50 | 
CC(=O)N1c2ccc(-c3cccc(C(=O)N(C)C)c3)cc2N(C(=O)c2ccco2)C[C@@H]1C [Example I-848] | 100 to 500 | 100 to 1000 | < 50 | 
CC(C)OC(=O)N1C[C@H](C)N(C(=O)C2CC2)c2ccc(-c3ccc(C(=O)N4CC[C@H](N(C)C)C4)cc3)cc21 [Example I-566] | 100 to 500 | 100 to 1000 | 50 to 500 | 
CC(=O)N1c2ccc(-c3cnn(CC(C)(C)O)c3)cc2N(C(=O)OC2CC(F)(F)C2)C[C@@H]1C [Example I-28, (S)-3,3-difluorocyclobutyl 4-acetyl-7-(1-(2-hydroxy-2-methylpropyl)-1H-pyrazol-4-yl)-3-methyl-3,4-dihydroquinoxaline-1(2H)-carboxylate] | > 500 | 100 to 1000 | 50 to 500 | 
CC(=O)N1c2ccc(-c3cnn(C4COC4)c3)cc2N(C(=O)OCC(F)(F)F)C[C@@H]1C [Example I-71, (S)-2,2,2-trifluoroethyl 4-acetyl-3-methyl-7-(1-(oxetan-3-yl)-1H-pyrazol-4-yl)-3,4-dihydroquinoxaline-1(2H)-carboxylate] | 100 to 500 | < 100 | < 50 | 
CC(=O)N1c2ccc(-c3ccc(S(=O)(=O)N(C)C)cc3)cc2N(C(=O)C2CCC2)C[C@@H]1C [Example I-1124] | 100 to 500 | 1000 to 10000 | 50 to 500 | 
CC(=O)N1c2ccc(-c3ccc(S(=O)(=O)C4CC4)cc3)cc2N(C(=O)OC(C)C)C[C@@H]1C [Example I-1034] | 100 to 500 | 100 to 1000 | 50 to 500 | 
CC(=O)N1c2ccc(-c3ccc(S(=O)(=O)C4CC4)cc3)cc2N(C(=O)c2ccco2)C[C@@H]1C [Example I-291] | 100 to 500 | 100 to 1000 | < 50 | 
CC(=O)N1c2ccc(-c3ccc(S(C)(=O)=O)cc3)cc2N(C(=O)Oc2cccc(C(F)(F)F)c2)C[C@@H]1C [Example I-237] | 100 to 500 | 1000 to 10000 | < 50 | 
CC(=O)N1c2ccc(-c3ccc(S(=O)(=O)N(C)C)c(C)c3)cc2N(C(=O)C2CC2)C[C@@H]1C [Example I-1300] | > 500 | 100 to 1000 | 50 to 500 | 
COC(=O)N1c2ccc(-c3ccc(C(=O)N4CC[C@@H](N(C)C)C4)cc3)cc2N(C(=O)OC(C)C)C[C@@H]1C [Example I-565] | 100 to 500 | 100 to 1000 | 50 to 500 | 
CC(C)OC(=O)N1C[C@H](C)N(C(=O)C2CC2)c2ccc(-c3cnn(CC4CCC4)c3)cc21 [Example I-618] | 100 to 500 | 1000 to 10000 | > 500 | 
CC(=O)N1c2ccc(-c3ccc4c(c3)CCCN4S(C)(=O)=O)cc2N(C(=O)OC(C)C)C[C@@H]1C [Example I-1160] | 100 to 500 | 100 to 1000 | 50 to 500 | 
C[C@H]1CN(C(=O)C2CC2)c2cc(-c3ccc(C(=O)N4CCNCC4)cc3)ccc2N1C(=O)C1CC1 [Example I-438] | 100 to 500 | 100 to 1000 | 50 to 500 | 
CC(=O)N1c2ccc(-c3ccc4c(c3)CCN4S(C)(=O)=O)cc2N(C(=O)OC(C)C)C[C@@H]1C [Example I-348] | 100 to 500 | 100 to 1000 | < 50 | 
CC(=O)N1c2ccc(-c3cnn(CC4CCC4)c3)cc2N(C(=O)OC(C)C)C[C@@H]1C [Example I-603] | 100 to 500 | 100 to 1000 | 50 to 500 | 
CC(=O)N1c2ccc(-c3ccc(NS(C)(=O)=O)cc3)cc2N(C(=O)OC2CC(F)(F)C2)C[C@@H]1C [Example I-30, (S)-3,3-difluorocyclobutyl 4-acetyl-3-methyl-7-(4-(methylsulfonamido)phenyl)-3,4-dihydroquinoxaline-1(2H)-carboxylate] | > 500 | 100 to 1000 | > 500 | 
CC(=O)N1c2cc([N+](=O)[O-])c(-c3cnn(C4CC4)c3)cc2N(C(=O)OC(C)C)C[C@@H]1C [Example I-195, isopropyl (S)-4-acetyl-7-(1-cyclopropyl-1H-pyrazol-4-yl)-3-methyl-6-nitro-3,4-dihydroquinoxaline-1(2H)-carboxylate] | > 500 | 100 to 1000 | > 500 | 
CC(=O)N1c2ccc(-c3cnn(C4CC4)c3)cc2N(C(=O)Oc2ccc(Cl)c3cccnc23)C[C@@H]1C [Example I-1196] | 100 to 500 | 100 to 1000 | 50 to 500 | 
CC(=O)N1c2ccc(-c3ccc(C(=O)N4CC[C@@H](N)C4)cc3)cc2N(C(=O)OC(C)C)C[C@@H]1C [Example I-532] | 100 to 500 | 100 to 1000 | 50 to 500 | 

SMILES | IC50 (MV4-11 cells; MV4-11, 72 h) [nM] | IC50 (BRD4 BD1) [nM] | IC50 (BRD4 BD2) [nM] | IC50 (MV4-11 cells) [nM]
CNC(=O)c1cccc(-c2ccc3c(c2)N(C(=O)c2ccco2)C[C@H](C)N3C(C)=O)c1 [Example I-801] | > 500 | 100 to 1000 | 50 to 500 | 
COC(=O)N1c2ccc(-c3cnn(C4CCNCC4)c3)cc2N(C(=O)Oc2ccc(F)cc2)C[C@@H]1C [Example I-1151] |  | 100 to 1000 | 50 to 500 | 100 to 500
CCOC(=O)N1C[C@H](C)N(C(C)=O)c2ccc(-c3ccc(S(=O)(=O)NCCO)cc3)cc21 [Example I-1037] | 100 to 500 | 1000 to 10000 | 50 to 500 | 
CCOC(=O)N1C[C@H](C)N(C(C)=O)c2ccc(-c3ccc(N4CCCS4(=O)=O)c(F)c3)cc21 [Example I-1155] | > 500 | 100 to 1000 | 50 to 500 | 
CC(=O)N1c2ccc(-c3ccc(S(=O)(=O)CC4CC4)cc3)cc2N(C(=O)OC(C)C)C[C@@H]1C [Example I-1077] | 100 to 500 | 1000 to 10000 | 50 to 500 | 
CC(=O)N1c2ccc(-c3ccc(S(C)(=O)=O)cc3)cc2N(C(=O)c2ccco2)C[C@@H]1C [Example I-817] | 100 to 500 | 1000 to 10000 | < 50 | 
CC(=O)N1c2ccc(-c3ccc(S(=O)(=O)n4cccn4)cc3)cc2N(C(=O)OC(C)C)C[C@@H]1C [Example I-1118] | > 500 | 1000 to 10000 | > 500 | 
CC(=O)N1c2ccc(-c3ccc(C(=O)N4CC[C@H](N)C4)cc3)cc2N(C(=O)OC(C)C)C[C@@H]1C [Example I-586] | 100 to 500 | 100 to 1000 | 50 to 500 | 
CC(=O)N1c2ccc(-c3cnn(C4CC4)c3)cc2N(C(=O)OC2CCCC2)C[C@@H]1C [Example I-23, (S)-cyclopentyl 4-acetyl-7-(1-cyclopropyl-1H-pyrazol-4-yl)-3-methyl-3,4-dihydroquinoxaline-1(2H)-carboxylate] | < 100 | < 100 | 50 to 500 | 
COc1ccc(OC(=O)N2C[C@H](C)N(C(C)=O)c3ccc(-c4ccc(S(C)(=O)=O)cc4)cc32)cc1 [Example I-233] | < 100 | 100 to 1000 | < 50 | 
CC(=O)N1c2ccc(-c3ccc(CN4CCCS4(=O)=O)cc3)cc2N(C(=O)c2ccco2)C[C@@H]1C [Example I-427] | 100 to 500 | 100 to 1000 | < 50 | 
CC(=O)N1c2ccc(-c3cnn(C4CC4)c3)cc2N(C(=O)OCC(F)(F)F)C[C@@H]1C [Example I-79, (S)-2,2,2-trifluoroethyl 4-acetyl-7-(1-cyclopropyl-1H-pyrazol-4-yl)-3-methyl-3,4-dihydroquinoxaline-1(2H)-carboxylate] | 100 to 500 | 100 to 1000 | 50 to 500 | 
CC(=O)N1c2ccc(-c3cccc(NS(C)(=O)=O)c3)cc2N(C(=O)OC2CCOCC2)C[C@@H]1C [Example I-1222] | 100 to 500 | 100 to 1000 | 50 to 500 | 
COC(=O)N1c2ccc(-c3cnn(CCO)c3)cc2N(C(=O)OC(C)C)C[C@@H]1C [Example I-324] | 100 to 500 | 100 to 1000 | 50 to 500 | 
CCS(=O)(=O)Nc1ccc(-c2ccc3c(c2)N(C(=O)OC2CCCCC2)C[C@H](C)N3C(C)=O)cc1 [Example I-1269] | < 100 | 100 to 1000 | 50 to 500 | 
CC(=O)N1c2ccc(-c3ccc(S(=O)(=O)n4cccn4)cc3)cc2N(C(=O)C2CCC2)C[C@@H]1C [Example I-1116] | > 500 | 1000 to 10000 | 50 to 500 | 
CC(=O)N1c2ccc(-c3cnn(C4COC4)c3)cc2N(C(=O)Oc2ccncc2)C[C@@H]1C [Example I-90, (S)-pyridin-4-yl 4-acetyl-3-methyl-7-(1-(oxetan-3-yl)-1H-pyrazol-4-yl)-3,4-dihydroquinoxaline-1(2H)-carboxylate] | 100 to 500 | < 100 | < 50 | 
CCOC(=O)N1C[C@H](C)N(C(C)=O)c2ccc(-c3ccc(S(=O)(=O)CC4CC4)cc3)cc21 [Example I-1076] | > 500 | 1000 to 10000 | 50 to 500 | 
CC(=O)N1c2ccc(-c3cccc(NS(=O)(=O)N(C)C)c3)cc2N(C(=O)OC2CCOCC2)C[C@@H]1C [Example I-1274] | 100 to 500 | 100 to 1000 | 50 to 500 | 
CC(=O)N1c2ccc(-c3ccc(N4CCCS4(=O)=O)cc3)cc2N(C(=O)Oc2ccc(F)cc2)C[C@@H]1C [Example I-1021] | < 100 | 100 to 1000 | 50 to 500 | 
